Results taken from patent publication US12083101B2, “Biaryl derivatives as YAP/TAZ-TEAD protein-protein interaction inhibitors” (Novartis AG, priority 2020, dated 2024).

Key:
[1] = system: NCI-H2052 Tet-On shYAP_2371 pLenti6 MCAT_Luc cells; assay: Proliferation assay (resazurin), NCI-H2052; format: cell-based; settings: Homo sapiens, NCI-H2052, 72 h, 72 hours incubation
Description: (§1) This cell line was also transduced with a Tet-pLKO-puro-based construct mediating tetracycline-inducible expression of a short-hairpin directed against the 3′UTR of the YAP1 mRNA (5′-[…]-3′).
(§2) Stock solutions of compounds were prepared at a concentration of 10 mM in DMSO and stored at 4° C. Where necessary to afford a full dose-response curve, the stock solutions were pre-diluted in DMSO to 1'000-fold the desired reduced start concentration. On the day after cell seeding, eleven 2-fold serial dilutions of each compound were dispensed directly into the cell assay plates using a HP 300D non-contact Digital Dispenser (TECAN, Mannedorf, Switzerland). The final concentration of DMSO was normalized to 0.1% in all wells.
(§3) The functional effect of compounds on cell proliferation was assessed using NCI-H2052 Tet-On shYAP_2371 pLenti6 MCAT_Luc and MKN-45/Ubc-luc cells by quantifying the reducing capacity of live cells using the redox indicator dye resazurin. […] For data analysis, the assay background value determined in wells containing medium, but no cells, was subtracted from all data points. […] The effect of a particular test compound concentration on cell proliferation/viability was expressed as percentage of day 0-corrected fluorescence reading obtained for cells treated with vehicle only (DMSO, final concentration 0.1%), which was set as 100%, whereas the fluorescence reading for wells containing medium only, but no cells, was set as −100%. Compound concentrations leading to half-maximal growth inhibition (GI50) were determined using standard four parameter curve fitting.

[2] = molecular target: Avi-humanTEAD4 217-434 / Cy5 labeled humanYAP 60-100 (Homo sapiens (Human), UniProt Q15561); assay: TR-FRET YAP-TEAD4 in-vitro biochemical assay; format: binding; settings: 1 nM Avi-humanTEAD4 217-434, 20 nM Cy5-humanYAP 60-100, 1 h room temperature
Avi-humanTEAD4 217-434 / Cy5 labeled humanYAP 60-100, sequence (Q15561 217-434): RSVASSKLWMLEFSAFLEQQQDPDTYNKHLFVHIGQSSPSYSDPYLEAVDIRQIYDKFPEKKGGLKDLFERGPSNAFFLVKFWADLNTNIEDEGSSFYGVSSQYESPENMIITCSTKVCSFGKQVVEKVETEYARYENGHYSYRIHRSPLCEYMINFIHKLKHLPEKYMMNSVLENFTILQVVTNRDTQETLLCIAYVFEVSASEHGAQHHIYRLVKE

[3] = system: NCI-H2052 Tet-On shYAP_2371 pLenti6 MCAT_Luc cells (YAP-dependent transcription); assay: YAP reporter gene activity assay (MCAT-luciferase), NCI-H2052; format: cell-based; settings: Homo sapiens, NCI-H2052, 24 h, 24 hours incubation, BrightGlo luminescence
Description: as §1, §2
The ability of compounds to inhibit YAP-dependent transcription was assessed in NCI-H2052 Tet-On shYAP_2371 pLenti6 MCAT_Luc cells, while specificity (lack of unspecific inhibition of luciferase expression of activity) was assessed in MKN-45/Ubc-luc cells. […] Following incubation for 24 hours at 37° C., compound-mediated modulation of reporter-gene activity was quantified 5 min after addition of 20 μl BrightGlo (Promega, Cat #E2620), by measuring luminescence intensity on a multi-mode plate-reader (TECAN, Männedorf, Switzerland, Integration time 100 ms). For data analysis, the assay background value determined in wells containing medium, but no cells, was subtracted from all data points. Dose-dependent compound effects were expressed as % of vehicle-treated control (luminescence signal produced by cells receiving DMSO only) and IC50s calculated using a four-parametric fit model.

MKN-45/Ubc-luc cells [4] = assay: Reporter gene specificity control (Ubc-luciferase), MKN-45; settings: Homo sapiens, MKN-45, 24 h, read-out: Reporter gene assay MKN-45 IC50 [μM], MKN-45/Ubc-luc cells (YAP deleted, specificity control), 24 hours incubation
MKN-45/Ubc-luc cells [5] = assay: Proliferation assay (resazurin), MKN-45; format: cell-based; settings: Homo sapiens, 72 hours incubation
Description: As a specificity control, MKN-45 cells were stably transduced with a Ubc-Luc reporter construct, in which constitutive expression of firefly luciferase is driven by the promoter of the ubiquitin C housekeeping gene.
as §2, §3

COCCOc1ccc(C(N)=O)c(-c2c(Cl)c(F)cc3c2C[C@@](CN)(c2ccccc2)O3)c1F (atropisomer, axis not shown) [Example 37, 2-((2S,4S)-2-(aminomethyl)-5-chloro-6-fluoro-2-phenyl-2,3-dihydrobenzofuran-4-yl)-3-fluoro-4-(2-methoxyethoxy)benzamide]
GI50 [1]: 0.052 µM
IC50 [2]: 0.002 µM
IC50 [3]: 0.033 µM
IC50 (MKN-45/Ubc-luc cells [4]): > 10 µM
GI50 (MKN-45/Ubc-luc cells [5]): > 10 µM

NC[C@@]1(c2ccccc2)Cc2c(cc(F)c(Cl)c2-c2c(C(N)=O)ccc(OCCO)c2F)O1 (atropisomer, axis not shown) [Example 38, 2-((2S,4S)-2-(aminomethyl)-5-chloro-6-fluoro-2-phenyl-2,3-dihydrobenzofuran-4-yl)-3-fluoro-4-(2-hydroxyethoxy)benzamide]
GI50 [1]: 0.029 µM
IC50 [2]: 0.002 µM
IC50 [3]: 0.024 µM
IC50 (MKN-45/Ubc-luc cells [4]): > 10 µM
GI50 (MKN-45/Ubc-luc cells [5]): > 10 µM

NC[C@@]1(c2ccccc2)Cc2c(cc(F)c(Cl)c2-c2cc(SC(F)(F)CO)ccc2C(N)=O)O1 (atropisomer, axis not shown) [Example 39, 2-((2S,4R)-2-(aminomethyl)-5-chloro-6-fluoro-2-phenyl-2,3-dihydrobenzofuran-4-yl)-4-((1,1-difluoro-2-hydroxyethyl)thio)benzamide]
GI50 [1]: 2.83 µM
IC50 [2]: 0.102 µM
IC50 [3]: 2.15 µM
IC50 (MKN-45/Ubc-luc cells [4]): > 10 µM
GI50 (MKN-45/Ubc-luc cells [5]): > 10 µM

COc1ncc(C(N)=O)c(-c2c(Cl)c(F)cc3c2C[C@@](CN)(c2ccccc2)O3)c1F (atropisomer, axis not shown) [Example 42, 4-((2S,4S)-2-(aminomethyl)-5-chloro-6-fluoro-2-phenyl-2,3-dihydrobenzofuran-4-yl)-5-fluoro-6-methoxynicotinamide]
GI50 [1]: 0.493 µM
IC50 [2]: 0.006 µM
IC50 [3]: 0.391 µM
IC50 (MKN-45/Ubc-luc cells [4]): > 10 µM
GI50 (MKN-45/Ubc-luc cells [5]): 9.4 µM

NC[C@@]1(c2ccccc2)Cc2c(cc(F)c(Cl)c2-c2c(C(N)=O)cnc(OCCO)c2F)O1 (atropisomer, axis not shown) [Example 43, 4-((2S,4S)-2-(Aminomethyl)-5-chloro-6-fluoro-2-phenyl-2,3-dihydrobenzofuran-4-yl)-5-fluoro-6-(2-hydroxyethoxy)nicotinamide]
GI50 [1]: 0.094 µM
IC50 [2]: 0.005 µM
IC50 [3]: 0.047 µM
IC50 (MKN-45/Ubc-luc cells [4]): > 10 µM
GI50 (MKN-45/Ubc-luc cells [5]): > 10 µM

CNC[C@@]1(c2ccccc2)Cc2c(cc(F)c(Cl)c2-c2c(C(N)=O)cnc(OCCOC)c2F)O1 (atropisomer, axis not shown) [Example 47, 4-((2S,4S)-5-Chloro-6-fluoro-2-((methylamino)methyl)-2-phenyl-2,3-dihydrobenzofuran-4-yl)-5-fluoro-6-(2-methoxyethoxy)nicotinamide]
GI50 [1]: 0.035 µM
IC50 [2]: 0.004 µM
IC50 [3]: 0.05 µM
IC50 (MKN-45/Ubc-luc cells [4]): > 10 µM
GI50 (MKN-45/Ubc-luc cells [5]): > 10 µM

CNC[C@@]1(c2ccccc2)Cc2c(cc(F)c(Cl)c2-c2c(C(=O)NC)ccc(OCCO)c2F)O1 (atropisomer, axis not shown) [Example 51, 2-((2S,4S)-5-Chloro-6-fluoro-2-((methylamino)methyl)-2-phenyl-2,3-dihydrobenzofuran-4-yl)-3-fluoro-4-(2-hydroxyethoxy)-N-methylbenzamide]
GI50 [1]: 0.071 µM
IC50 [2]: 0.003 µM
IC50 [3]: 0.062 µM
IC50 (MKN-45/Ubc-luc cells [4]): > 10 µM
GI50 (MKN-45/Ubc-luc cells [5]): > 10 µM

CNC[C@@]1(c2ccccc2)Cc2c(cc(F)c(Cl)c2-c2c(C(=O)NC)ccc(OC[C@H](C)O)c2F)O1 (atropisomer, axis not shown) [Example 52, 2-((2S,4S)-5-chloro-6-fluoro-2-((methylamino)methyl)-2-phenyl-2,3-dihydrobenzofuran-4-yl)-3-fluoro-4-((S)-2-hydroxypropoxy)-N-methylbenzamide]
GI50 [1]: 0.174 µM
IC50 [2]: 0.011 µM
IC50 [3]: 0.109 µM
IC50 (MKN-45/Ubc-luc cells [4]): > 10 µM
GI50 (MKN-45/Ubc-luc cells [5]): > 10 µM

NC(=O)c1ccc(OCCO)c(F)c1-c1c(Cl)c(F)cc2c1C[C@@](CN[C@H]1C[C@H](CO)C1)(c1ccccc1)O2 (atropisomer, axis not shown) [Example 64a, 2-((2S,4S)-5-chloro-6-fluoro-2-((((trans)-3-(hydroxymethyl)cyclobutyl)amino)methyl)-2-phenyl-2,3-dihydrobenzofuran-4-yl)-3-fluoro-4-(2-hydroxyethoxy)benzamide]
GI50 [1]: 0.036 µM
IC50 [2]: 0.002 µM
IC50 [3]: 0.015 µM
IC50 (MKN-45/Ubc-luc cells [4]): > 10 µM
GI50 (MKN-45/Ubc-luc cells [5]): > 10 µM

NC(=O)c1ccc(OCCO)c(F)c1-c1c(Cl)c(F)cc2c1C[C@@](CN[C@H]1C[C@@H](CO)C1)(c1ccccc1)O2 (atropisomer, axis not shown) [Example 64b, 2-((2S,4S)-5-chloro-6-fluoro-2-((((cis)-3-(hydroxymethyl)cyclobutyl)amino)methyl)-2-phenyl-2,3-dihydrobenzofuran-4-yl)-3-fluoro-4-(2-hydroxyethoxy)benzamide]
GI50 [1]: 0.041 µM
IC50 [2]: 0.003 µM
IC50 [3]: 0.022 µM
IC50 (MKN-45/Ubc-luc cells [4]): > 10 µM
GI50 (MKN-45/Ubc-luc cells [5]): > 10 µM

C[C@]1(O)CC[C@H](NC[C@@]2(c3ccccc3)Cc3c(cc(F)c(Cl)c3-c3c(C(N)=O)ccc(-n4ccnc4)c3F)O2)CC1 (atropisomer, axis not shown) [Example 69a, 2-((2S,4S)-5-chloro-6-fluoro-2-((((trans)-4-hydroxy-4-methylcyclohexyl)amino)methyl)-2-phenyl-2,3-dihydrobenzofuran-4-yl)-3-fluoro-4-(1H-imidazol-1-yl)benzamide]
GI50 [1]: 0.111 µM
IC50 [2]: 0.005 µM
IC50 [3]: 0.08 µM
IC50 (MKN-45/Ubc-luc cells [4]): > 10 µM
GI50 (MKN-45/Ubc-luc cells [5]): > 10 µM

C[C@]1(O)CC[C@@H](NC[C@@]2(c3ccccc3)Cc3c(cc(F)c(Cl)c3-c3c(C(N)=O)ccc(-n4ccnc4)c3F)O2)CC1 (atropisomer, axis not shown) [Example 69b, 2-((2S,4S)-5-chloro-6-fluoro-2-((((cis)-4-hydroxy-4-methylcyclohexyl)amino)methyl)-2-phenyl-2,3-dihydrobenzofuran-4-yl)-3-fluoro-4-(1H-imidazol-1-yl)benzamide]
GI50 [1]: 0.171 µM
IC50 [2]: 0.004 µM
IC50 [3]: 0.114 µM
IC50 (MKN-45/Ubc-luc cells [4]): 7.8 µM
GI50 (MKN-45/Ubc-luc cells [5]): 6.7 µM

NC(=O)c1ccc(OC(F)F)c(F)c1-c1c(Cl)c(F)cc2c1C[C@@](CN[C@H]1CC[C@H](O)CC1)(c1ccccc1)O2 (atropisomer, axis not shown) [Example 72, 2-((2S,4S)-5-chloro-6-fluoro-2-(((trans-4-hydroxycyclohexyl)amino)methyl)-2-phenyl-2,3-dihydrobenzofuran-4-yl)-4-(difluoromethoxy)-3-fluorobenzamide]
GI50 [1]: 0.072 µM
IC50 [2]: 0.002 µM
IC50 [3]: 0.039 µM
IC50 (MKN-45/Ubc-luc cells [4]): 9.8 µM
GI50 (MKN-45/Ubc-luc cells [5]): > 10 µM

C[C@@H](O)CNC[C@@]1(c2ccccc2)Cc2c(cc(F)c(Cl)c2-c2c(C(N)=O)ccc(OC(F)F)c2F)O1 (atropisomer, axis not shown) [Example 74, 2-((2S,4S)-5-chloro-6-fluoro-2-((((R)-2-hydroxypropyl)amino)methyl)-2-phenyl-2,3-dihydrobenzofuran-4-yl)-4-(difluoromethoxy)-3-fluorobenzamide]
GI50 [1]: 0.674 µM
IC50 [2]: 0.033 µM
IC50 [3]: 0.419 µM
IC50 (MKN-45/Ubc-luc cells [4]): > 10 µM
GI50 (MKN-45/Ubc-luc cells [5]): > 10 µM

NC(=O)c1ccc(OC(F)F)c(F)c1-c1c(Cl)c(F)cc2c1C[C@@](CN[C@H]1CC[C@@H](O)[C@H](F)C1)(c1ccccc1)O2 (atropisomer, axis not shown) [Example 81a, 2-((2S,4S)-5-chloro-6-fluoro-2-((((1S,3R,4R)-3-fluoro-4-hydroxycyclohexyl)amino)methyl)-2-phenyl-2,3-dihydrobenzofuran-4-yl)-4-(difluoromethoxy)-3-fluorobenzamide]
GI50 [1]: 0.467 µM
IC50 [2]: 0.033 µM
IC50 [3]: 0.231 µM
IC50 (MKN-45/Ubc-luc cells [4]): > 10 µM
GI50 (MKN-45/Ubc-luc cells [5]): > 10 µM
